In US20240115654A1, “INTRAVENOUS ADMINISTRATION OF ENGINEERED ANTIMICROBIAL AMPHIPHILIC PEPTIDES” (priority 2021, published 2024):
Several values for one entry are separate records, joined by “and”; a condition that tells them apart may be missing. Equal values may be shown once. Read-outs that look alike come from different tables or passages of the source. Peptide text beside a SMILES is read from it.

Conditions: for increase of AUC0-t / increase of mean AUC0-24: Cohorts 1 to 3
[1] = Cohort 4, 0.5 mg/kg IV infusion 2 hours, Max
[2] = Cohort 4, 0.5 mg/kg IV infusion 2 hours, Mean
[3] = Cohort 4, 0.5 mg/kg IV infusion 2 hours, Min
[4] = Cohort 4, 0.5 mg/kg IV, infusion 2 hours, cohort Geometric Mean
[5] = Cohort 4, 0.5 mg/kg IV, infusion 2 hours, cohort Mean
[6] = Cohort 4, 0.5 mg/kg IV, infusion 2 hours, cohort Median
[7] = Cohort 5, 1 mg/kg IV infusion 4 hours, Max
[8] = Cohort 5, 1 mg/kg IV infusion 4 hours, Min
[9] = Phase 1 subjects, 1-hr IV infusion
[10] = over the 5-fold increase in dose
[11] = single 1-hour infusion 0.05 mg/kg, Geometric Mean
[12] = single 1-hour infusion 0.05 mg/kg, Max
[13] = single 1-hour infusion 0.05 mg/kg, Mean
[14] = single 1-hour infusion 0.05 mg/kg, Median
[15] = single 1-hour infusion 0.05 mg/kg, Min
[16] = single 1-hour infusion 0.05 mg/kg, individual subjects
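Note: phase 1 study in human subjects given one IV dose of the peptide, enrolled in sequential ascending-dose cohorts and randomized to peptide or placebo.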

Description: Administration was a single 1-hour infusion.
Subjects were enrolled in sequential cohorts of peptide ascending dose levels and randomly assigned to receive a single IV administration of either peptide or placebo over 1 to 2 hours. […] In addition, the infusion volume was adjusted for Cohort 4 to maintain drug concentrations in line with Cohort 2
Blood samples for PK assessment were collected at pre-dose, at the midpoint of infusion, within 1 minute after the end-of-infusion and at 0.5, 1, 2, 4, 6, 8, 12, 20, 24, 36 and 48 hours after the end-of-infusion.
The pharmaceutical composition was stored at 2° C. to 8° C. for up to 14 days and then 15° C. to 25° C. for up to 48 hours for dosing.
Subjects were enrolled in sequential cohorts of peptide ascending dose levels and randomly assigned to receive a single IV administration of either peptide or placebo over 1 to 2 hours.

## CC(C)[C@H](NC(=O)[C@H](Cc1c[nH]c2ccccc12)NC(=O)[C@H](CCCNC(=N)N)NC(=O)[C@H](CCCNC(=N)N)NC(=O)[C@@H](NC(=O)[C@@H](NC(=O)[C@H](CCCNC(=N)N)NC(=O)[C@@H](NC(=O)[C@@H](NC(=O)[C@H](CCCNC(=N)N)NC(=O)[C@H](CCCNC(=N)N)NC(=O)[C@H](Cc1c[nH]c2ccccc12)NC(=O)[C@@H](NC(=O)[C@H](CCCNC(=N)N)NC(=O)[C@H](CCCNC(=N)N)NC(=O)[C@@H](NC(=O)[C@H](CCCNC(=N)N)NC(=O)[C@H](CCCNC(=N)N)NC(=O)[C@@H](NC(=O)[C@H](Cc1c[nH]c2ccccc12)NC(=O)[C@H](CCCNC(=N)N)NC(=O)[C@@H](N)CCCNC(=N)N)C(C)C)C(C)C)C(C)C)C(C)C)C(C)C)C(C)C)C(C)C)C(=O)N[C@@H](CCCNC(=N)N)C(=O)N[C@@H](CCCNC(=N)N)C(N)=O [SEQ ID NO: 1] (H-RRWVRRVRRVWRRVVRVVRRWVRR-NH2)
[1]
  AUC(0-inf): 13500 ng·h/mL
  AUC(0-t): 12200 ng·h/mL
  AUCextrap: 12.8%
  Cmax: 2310 ng/mL
  t1/2: 21.1 h
[2]
  AUCextrap: 8.22%
  CL/F: 1.07 mL/min/kg
Cohort 4, 0.5 mg/kg IV infusion 2 hours, Median
  AUCextrap: 8.81%
[3]
  AUC0-24: 3190 ng·h/mL
  AUC(0-inf): 3870 ng·h/mL
  AUC(0-t): 3440 ng·h/mL
  AUCextrap: 3.65%
  CL/F: 0.615 mL/min/kg
  Cmax: 994 ng/mL
  t1/2: 11.5 h
Cohort 4, 0.5 mg/kg IV, infusion 2 hours, 0.0 h, cohort mean N 6
  Plasma Concentration by Nominal Time from Start of Infusion, Mean: 0.00 ng/mL
Cohort 4, 0.5 mg/kg IV, infusion 2 hours, 0.0 h, individual subjects
  Plasma Concentration by Nominal Time from Start of Infusion: 0.00 ng/mL
Cohort 4, 0.5 mg/kg IV, infusion 2 hours, 4.0 h, individual subjects
  Plasma Concentration by Nominal Time from Start of Infusion: 457 ng/mL and 502 ng/mL and 614 ng/mL
Cohort 4, 0.5 mg/kg IV, infusion 2 hours, 6.0 h, individual subjects
  Plasma Concentration by Nominal Time from Start of Infusion: 249 ng/mL and 448 ng/mL and 472 ng/mL
Cohort 4, 0.5 mg/kg IV, infusion 2 hours, 8.0 h, individual subjects
  Plasma Concentration by Nominal Time from Start of Infusion: 164 ng/mL and 311 ng/mL and 377 ng/mL
[4]
  AUCextrap: 7.38%
  CL/F: 0.977 mL/min/kg
  Tlast: 46 h
  λz: 0.0443 h⁻¹
[5]
  AUCextrap: 8.22%
  CL/F: 1.07 mL/min/kg
  Tlast: 46 h
  λz: 0.0457 h⁻¹
[6]
  AUCextrap: 8.81%
  CL/F: 0.892 mL/min/kg
  Tlast: 50 h
  λz: 0.0461 h⁻¹
Cohort 4, 0.5 mg/kg IV, infusion 2 hours, individual subjects
  Tlast: 38 h (2×) and 50 h (4×)
Cohort 5, 1 mg/kg IV 4-hr infusion, 0.0 h, cohort mean
  Plasma Concentration by Nominal Time from Start of Infusion, Mean: 0.00 ng/mL
Cohort 5, 1 mg/kg IV infusion 4 hours, Geometric Mean
  AUCextrap: 8.61%
[7]
  AUC0-24: 28800 ng·h/mL
  AUC(0-inf): 25700 ng·h/mL
  AUC(0-t): 34300 ng·h/mL
  AUCextrap: 17.8%
  t1/2: 28.3 h
Cohort 5, 1 mg/kg IV infusion 4 hours, Mean
  AUCextrap: 10.8%
Cohort 5, 1 mg/kg IV infusion 4 hours, Median
  AUCextrap: 11.6%
[8]
  AUC0-24: 14000 ng·h/mL
  AUC(0-inf): 17400 ng·h/mL
  AUC(0-t): 15800 ng·h/mL
  AUCextrap: 2.43%
  Cmax: 2030 ng/mL
  t1/2: 9.59 h
Cohort 5, 1 mg/kg IV infusion 4 hours, individual subject
  AUC(0-inf): 17400 ng·h/mL and 19900 ng·h/mL and 25700 ng·h/mL
[9]
  actual dose-level exposure AUC0-24 relative to that predicted from animal data: 5-10 ×
  actual dose-level exposure Cmax relative to that predicted from animal data: about 4 ×
Dose range 0.05 to 0.5 mg/kg, slope not significantly different from 1
  dose proportionality of AUC0-t: increased proportionally with dose increase
Dose range 0.05 to 1 mg/kg
  intercept estimate, log AUC0-∞ versus log dose: 6.04
Dose range 0.05 to 1 mg/kg, 90% CI=0.78 to 1.03
  slope estimate, log AUC0-∞ versus log dose: 0.91
[10]
  increase of AUC0-t: 4.2 fold
  increase of mean AUC0-24: 3.6 fold
Over the […] increase in dose
  increase of AUC0-t: 2.2 fold
  increase of mean AUC0-24: 2.0 fold
[11]
  AUCextrap: 8.36%
  Tlast: 24 h
  λz: 0.0946 h⁻¹
[12]
  AUC0-24: 1610 ng·h/mL
  AUC(0-inf): 1820 ng·h/mL
  AUC(0-t): 1720 ng·h/mL
  AUCextrap: 12.1%
  CL/F: 0.595 mL/min/kg
  Cmax: 341 ng/mL
  Tlast: 37 h
  t1/2: 8.59 h
  λz: 0.105 h⁻¹
[13]
  AUCextrap: 8.87%
  Tlast: 25 h
  λz: 0.095 h⁻¹
[14]
  AUCextrap: 8.12%
  Tlast: 25 h
  λz: 0.0951 h⁻¹
[15]
  AUC0-24: 619 ng·h/mL
  AUC(0-t): 515 ng·h/mL
  AUCextrap: 4.54%
  CL/F: 0.457 mL/min/kg
  Cmax: 170 ng/mL
  Tlast: 13 h
  t1/2: 6.62 h
  λz: 0.0807 h⁻¹
[16]
  AUC(0-inf): 1490 ng·h/mL and 1800 ng·h/mL and 1820 ng·h/mL
  CL/F: 0.562 mL/min/kg and 0.463 mL/min/kg and 0.457 mL/min/kg
  Tlast: 25 h (4×) and 13 h and 37 h
